Experimental data: US10711036B2, “MALT1 inhibitors and uses thereof” (Cornell University, priority 2015, dated 2020)
*1 amine or outer side, *2 acyl side, *3 side chain or, on linkers, in order; H or OH if unused. Where a SMILES comes first, the peptide text is derived from it. [ ]: non-standard residue; d: D form. The star is where a group is joined. cisHyp = O=C(O)[C@@H]1C[C@H](O)CN1; Hydrocinnamoyl = O=C(CCc1ccccc1)*; Chg = N[C@H](C(=O)O)C1CCCCC1; Phg = N[C@H](C(=O)O)c1ccccc1; Tle = CC(C)(C)[C@H](N)C(=O)O; NMeV = CN[C@H](C(=O)O)C(C)C; αMeP = C[C@@]1(C(=O)O)CCCN1; Pip = O=C(O)[C@@H]1CCCCN1; 3Abz = Nc1cccc(C(=O)O)c1; ClZ = O=C(OCc1ccccc1Cl)*; Cbz = O=C(OCc1ccccc1)*; PhAc = O=C(Cc1ccccc1)*; CO = O=C([*:1])[*:2]; Bz = O=C(c1ccccc1)*; NHPh = c1ccc(N*)cc1; CH2F = FC*

Legend:
MALT1 = MALT1 (Homo sapiens (Human), UniProt Q9UDY8); assay: Inhibition constants (Ki) for inhibition of MALT1; type: biochemical; details: 100 nM MALT1 used for the assay
Procedure: For exemplary compounds of the disclosure, Ki for inhibition of MALT1 was measured (Table E11). A concentration of 100 nM MALT1 was used for the assay.

OCI-LY3 = assay: Cell growth inhibition assay (CellTiter-Glo, 96 hours), OCI-LY3; type: cell-based, human; details: OCI-LY3 cells, treated at t=0 and t=48 hours, ATP luminescence
Procedure: DLBCL cell lines were grown in exponential growth conditions during the 96 hours of treatment. Cells were treated twice: at t=0 and t=48 hours, and cell viability was determined by ATP quantification using a luminescent method ([…]-GLO, Promega, Madison, Wis.). Cell viability in drug-treated cells was normalized to vehicle controls (fractional viability) and results are given as 1-fractional viability.
Experiments were Performed in Triplicate.

MALT1, sequence (Q9UDY8 whole entry): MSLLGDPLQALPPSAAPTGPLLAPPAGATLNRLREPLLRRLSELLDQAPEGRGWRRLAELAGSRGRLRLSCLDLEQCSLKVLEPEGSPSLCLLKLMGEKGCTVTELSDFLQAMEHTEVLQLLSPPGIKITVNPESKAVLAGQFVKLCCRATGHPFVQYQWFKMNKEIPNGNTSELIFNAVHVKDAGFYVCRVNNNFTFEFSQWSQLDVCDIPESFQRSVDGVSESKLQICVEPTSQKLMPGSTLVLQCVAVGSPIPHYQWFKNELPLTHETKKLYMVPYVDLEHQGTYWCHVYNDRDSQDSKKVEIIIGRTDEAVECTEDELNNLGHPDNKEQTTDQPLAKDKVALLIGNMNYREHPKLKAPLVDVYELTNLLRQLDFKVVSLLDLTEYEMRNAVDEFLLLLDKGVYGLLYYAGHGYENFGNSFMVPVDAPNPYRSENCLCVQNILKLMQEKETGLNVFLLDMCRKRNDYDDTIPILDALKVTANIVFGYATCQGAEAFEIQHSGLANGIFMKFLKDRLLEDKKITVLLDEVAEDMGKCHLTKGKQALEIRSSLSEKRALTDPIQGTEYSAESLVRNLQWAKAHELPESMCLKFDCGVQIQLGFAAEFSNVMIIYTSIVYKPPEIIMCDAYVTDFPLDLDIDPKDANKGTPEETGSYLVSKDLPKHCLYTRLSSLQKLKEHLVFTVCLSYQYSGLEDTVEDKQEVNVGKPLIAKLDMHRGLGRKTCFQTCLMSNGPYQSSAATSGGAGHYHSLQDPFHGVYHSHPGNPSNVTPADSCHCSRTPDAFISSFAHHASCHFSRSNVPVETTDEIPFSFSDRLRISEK

Ki (MALT1) [nM] | GI50 (OCI-LY3; Homo sapiens) [nM] | GI50 (OCI-LY3) [nM] | SMILES
43 | 1440 |  | CC(C)(C)[C@H](NC(=O)OCc1ccccc1)C(=O)N1CCC[C@H]1C(=O)N[C@@H](CCCNC(=N)N)C(=O)CF [Compound 103] (Cbz-[Tle]-Pro-Arg-CH2F)
154 | 8050 |  | N=C(N)NCCC[C@H](NC(=O)[C@@H]1CCCN1C(=O)[C@@H](NC(=O)OCc1ccccc1)c1ccccc1)C(=O)CF [Compound 104] (Cbz-[Phg]-Pro-Arg-CH2F)
55 | 4260 |  | N=C(N)NCCC[C@H](NC(=O)[C@@H]1CCCN1C(=O)[C@@H](NC(=O)OCc1ccccc1)c1cccnc1)C(=O)CF [Compound 105]
146 | 8430 |  | N=C(N)NCCC[C@H](NC(=O)[C@@H]1CCCN1C(=O)[C@H](NC(=O)OCc1ccccc1)c1cccnc1)C(=O)CF [Compound 106]
37 | 1330 |  | N=C(N)NCCC[C@H](NC(=O)[C@@H]1CCCCN1C(=O)[C@@H](NC(=O)OCc1ccccc1)C1CCCCC1)C(=O)CF [Compound 108] (Cbz-[Chg]-[Pip]-Arg-CH2F)
49 | 1070 |  | CC(C)[C@H](NC(=O)OCc1ccccc1)C(=O)N1C[C@@H](O)C[C@H]1C(=O)N[C@@H](CCCNC(=N)N)C(=O)CF [Compound 110] (Cbz-Val-[cisHyp]-Arg-CH2F)
158 | 10500 |  | CC(C)[C@H](NC(=O)OCc1ccccc1)C(=O)N1CCC[C@@]1(C)C(=O)N[C@@H](CCCNC(=N)N)C(=O)CF [Compound 111] (Cbz-Val-[αMeP]-Arg-CH2F)
40 | 660 |  | CC(C)[C@H](NC(=O)c1ccccc1)C(=O)N1CCC[C@H]1C(=O)N[C@@H](CCCNC(=N)N)C(=O)CF [Compound 113] (Bz-Val-Pro-Arg-CH2F)
42 | 3370 |  | CC(C)[C@H](NC(=O)Cc1ccccc1)C(=O)N1CCC[C@H]1C(=O)N[C@@H](CCCNC(=N)N)C(=O)CF [Compound 117] (PhAc-Val-Pro-Arg-CH2F)
46 | 2910 |  | CC(C)[C@H](NC(=O)Cc1cccc(Br)c1)C(=O)N1CCC[C@H]1C(=O)N[C@@H](CCCNC(=N)N)C(=O)CF [Compound 118]
43 | 1880 |  | CC(C)[C@H](NC(=O)CCc1ccccc1)C(=O)N1CCC[C@H]1C(=O)N[C@@H](CCCNC(=N)N)C(=O)CF [Compound 119] (Hydrocinnamoyl-Val-Pro-Arg-CH2F)
109 | 7290 |  | COc1ccccc1C(=O)N[C@H](C(=O)N1CCC[C@H]1C(=O)N[C@@H](CCCNC(=N)N)C(=O)CF)C(C)C [Compound 121]
75 | 2000 |  | COc1cccc(C(=O)N[C@H](C(=O)N2CCC[C@H]2C(=O)N[C@@H](CCCNC(=N)N)C(=O)CF)C(C)C)c1 [Compound 122]
50 | 1670 |  | COc1ccc(C(=O)N[C@H](C(=O)N2CCC[C@H]2C(=O)N[C@@H](CCCNC(=N)N)C(=O)CF)C(C)C)cc1 [Compound 123]
100 | 16800 |  | CC(C)[C@H](NC(=O)c1cnn(C)c1)C(=O)N1CCC[C@H]1C(=O)N[C@@H](CCCNC(=N)N)C(=O)CF [Compound 124]
 | 9650 |  | Cc1nc(C(=O)N[C@H](C(=O)N2CCC[C@H]2C(=O)N[C@@H](CCCNC(=N)N)C(=O)CF)C(C)C)cs1 [Compound 125]
60 | 6660 |  | CC(C)[C@H](NC(=O)c1ccc(C#N)cc1)C(=O)N1CCC[C@H]1C(=O)N[C@@H](CCCNC(=N)N)C(=O)CF [Compound 126]
75 | > 20000 |  | CC(C)[C@H](NC(=O)c1ccc(N2CCOCC2)cc1)C(=O)N1CCC[C@H]1C(=O)N[C@@H](CCCNC(=N)N)C(=O)CF [Compound 127]
111 | > 20000 |  | CC(C)[C@H](NC(=O)c1csc(N2CCOCC2)n1)C(=O)N1CCC[C@H]1C(=O)N[C@@H](CCCNC(=N)N)C(=O)CF [Compound 128]
52 | 1520 |  | CC(C)[C@H](NC(=O)Nc1ccccc1)C(=O)N1CCC[C@H]1C(=O)N[C@@H](CCCNC(=N)N)C(=O)CF [Compound 129] ({NHPh-CO}-Val-Pro-Arg-CH2F)
 | 3720 |  | CC(C)[C@H](NS(=O)(=O)c1ccc(Br)cc1)C(=O)N1CCC[C@H]1C(=O)N[C@@H](CCCNC(=N)N)C(=O)CF [Compound 130]
58 | 14500 |  | CC(C)[C@H](NC(=O)c1cccc(N2CCOCC2)c1)C(=O)N1CCC[C@H]1C(=O)N[C@@H](CCCNC(=N)N)C(=O)CF [Compound 131]
175 | > 20000 |  | CC(C)[C@H](NC(=O)c1cccc(N2CCN(C)CC2)c1)C(=O)N1CCC[C@H]1C(=O)N[C@@H](CCCNC(=N)N)C(=O)CF [Compound 132]

Ki (MALT1) [nM] | GI50 (OCI-LY3; Homo sapiens) [nM] | GI50 (OCI-LY3) [nM] | SMILES
54 | > 20000 |  | CC(=O)Nc1cccc(C(=O)N[C@H](C(=O)N2CCC[C@H]2C(=O)N[C@@H](CCCNC(=N)N)C(=O)CF)C(C)C)c1 [Compound 133] (Ac-[3Abz]VPR-CH2F)
39 | 3690 |  | CC(C)[C@H](NC(=O)c1cccc(C#N)c1)C(=O)N1CCC[C@H]1C(=O)N[C@@H](CCCNC(=N)N)C(=O)CF [Compound 134]
132 | 120 |  | CC(C)[C@H](NC(=O)c1ccc(C(F)(F)F)cc1)C(=O)N1CCC[C@H]1C(=O)N[C@@H](CCCNC(=N)N)C(=O)CF [Compound 135]
67 | 1240 |  | CC(C)[C@H](NC(=O)c1ccc(Cl)cc1)C(=O)N1CCC[C@H]1C(=O)N[C@@H](CCCNC(=N)N)C(=O)CF [Compound 136]
30 | 550 |  | CC(C)[C@H](NC(=O)c1ccc(-c2ccccc2)cc1)C(=O)N1CCC[C@H]1C(=O)N[C@@H](CCCNC(=N)N)C(=O)CF [Compound 137]
 | 1240 |  | CC(C)[C@H](NC(=O)c1ccc(Br)s1)C(=O)N1CCC[C@H]1C(=O)N[C@@H](CCCNC(=N)N)C(=O)CF [Compound 138]
121 | 1750 |  | CC(C)[C@H](NC(=O)c1ncc(-c2ccccc2)s1)C(=O)N1CCC[C@H]1C(=O)N[C@@H](CCCNC(=N)N)C(=O)CF [Compound 139]
64 | 290 |  | CC(C)[C@H](NC(=O)OCc1ccccc1)C(=O)N[C@@H](CO)C(=O)N[C@@H](CCCNC(=N)N)C(=O)CF [Compound 140]
 | 14100 |  | N=C(N)NCCC[C@H](NC(=O)[C@@H]1CCCN1C(=O)[C@H](Cc1cccnc1)NC(=O)c1ccc(Br)cc1)C(=O)CF [Compound 142]
 | 500 |  | CC(C)[C@H](NC(=O)c1ccc(Br)c(C#N)c1)C(=O)N1CCC[C@H]1C(=O)N[C@@H](CCCNC(=N)N)C(=O)CF [Compound 146]
64 |  |  | CC(C)[C@H](NC(=O)c1ccc(Br)cc1)C(=O)N[C@@H](CO)C(=O)N[C@@H](CCCNC(=N)N)C(=O)CF [Compound 149]
47 |  |  | CC(C)[C@H](NC(=O)c1ccc2ccccc2c1)C(=O)N1CCC[C@H]1C(=O)N[C@@H](CCCNC(=N)N)C(=O)CF [Compound 152]
 | 270 |  | CC(C)c1ccc(C(=O)N[C@H](C(=O)N2CCC[C@H]2C(=O)N[C@@H](CCCNC(=N)N)C(=O)CF)C(C)C)cc1 [Compound 163]
557 |  |  | CC(C)[C@H](NC(=O)Nc1cccc(Cl)c1)C(=O)N1CCC[C@H]1C(=O)N[C@H](CCCNC(=N)N)C(=O)CF [Compound 166]
32 |  |  | CC(C)[C@H](NC(=O)OCc1ccc(Cl)cc1)C(=O)N1CCC[C@H]1C(=O)N[C@@H](CCCNC(=N)N)C(=O)CF [Compound 168]
22 |  |  | CC(C)[C@H](NC(=O)OCc1cccc(Cl)c1)C(=O)N1CCC[C@H]1C(=O)N[C@@H](CCCNC(=N)N)C(=O)CF [Compound 169]
27 |  |  | CC(C)[C@H](NC(=O)OCc1ccccc1Cl)C(=O)N1CCC[C@H]1C(=O)N[C@@H](CCCNC(=N)N)C(=O)CF [Compound 170] (ClZ-Val-Pro-Arg-CH2F)
 | 60 |  | N=C(N)NCCC[C@H](NC(=O)[C@@H]1C[C@@H](O)CN1C(=O)[C@@H](NC(=O)c1ccc(Br)cc1)C1CCCCC1)C(=O)CF [Compound 172]
28 |  |  | CC(C)[C@H](NC(=O)c1ccc(Br)cc1)C(=O)N1C[C@H](C#N)C[C@H]1C(=O)N[C@@H](CCCNC(=N)N)C(=O)CF [Compound 177]
38 |  |  | CC(C)[C@H](NC(=O)c1ccc(Br)cc1)C(=O)N[C@@H](C)C(=O)N[C@@H](CCCNC(=N)N)C(=O)CF [Compound 178]
122 |  |  | N=C(N)NCCC[C@H](NC(=O)[C@@H]1CCCN1C(=O)[C@H](CC1CCCCC1)NC(=O)c1ccc(Br)cc1)C(=O)CF [Compound 187]
 |  | > 5000 | CC(C)[C@H](NC(=O)OCc1ccccc1)C(=O)N1CCC[C@H]1C(=O)N[C@@H](CCCNC1=NCCN1)C(=O)CF [Compound 201]
> 200 |  |  | CN[C@H](C(=O)N1CCC[C@H]1C(=O)N[C@@H](CCCNC(=N)N)C(=O)CF)C(C)C [Compound 205] (H-[NMeV]-Pro-Arg-CH2F)
